Laboratory results from ChEMBL document CHEMBL5528067, “From Synergy to Monotherapy: Discovery of Novel 2,4,6-Trisubstituted Triazine Hydrazone Derivatives with Potent Antifungal Potency In Vitro and In Vivo” (J Med Chem, 2024).
In brackets after ≈: the same amount, converted by molar mass. Activity calls are given as the source filed them. No cut-off for these calls is given here.

Legend:
Candida albicans [1] = assay: Induction of cell wall component change in Candida albicans SC5314 assessed as irregular and shrunken cell membrane chitin structure at 4 microg/ml measured after 12 hrs by transmission electron microscopy; format: functional, organism-based; conditions: dose 4.0 µg/ml
[2] = Half life in Sprague-Dawley rat at 2 mg/kg, iv measured upto 24 hrs by LC-MS/MS analysis; format: ADME, organism-based; conditions: in vivo
Candida albicans [3] = assay: Synergistic antifungal activity against FCZ-resistant Candida albicans strain 901 assessed as fractional inhibitory concentration index measured after 48 hrs in presence of FCZ by CLSI based micro-dilution broth method; format: functional
[Candida] auris = Antifungal activity against FCZ-resistant Candida auris 919 assessed as growth inhibition measured after 48 hrs incubation by CLSI based micro-dilution broth method; format: functional; conditions: Candidozyma auris
[4] = AUC (0 to infinity) in Sprague-Dawley rat at 2 mg/kg, iv measured upto 24 hrs by LC-MS/MS analysis; format: ADME, organism-based; conditions: in vivo
Candida albicans [5] = assay: Suppression of SAP6 gene expression in Candida albicans SC5314 assessed as fold increase at 8 microg/ml by real time RT-PCR analysis relative to control; format: functional; conditions: dose 8.0 µg/ml
Candida albicans [6] = assay: Filamentation inhibitory effect in Candida albicans SC5314 assessed as inhibition of hyphal formation using hyphal-inducing RPMI 1640 medium by measuring shorter hyphal at 2 to 8 microg/ml measured after 8 hrs by inverted imaging microscopy; format: functional, organism-based; conditions: dose 2-8 µg/ml
[7] = Metabolic stability in mouse liver microsomes assessed as half life measured upto 60 mins by LC-MS/MS analysis; format: ADME, Microsome
Pichia kudriavzevii = assay: Antifungal activity against FCZ-resistant Candida krusei 4996 assessed as growth inhibition at 4 microg/ml measured at 24 hrs incubation by time growth assay; format: functional, organism-based; conditions: dose 4.0 µg/ml
[8] = Cytotoxicity against human HUVEC cells assessed as cell viability at 16 microg/ml measured after 24 hrs by CCK-8 assay relative to control; format: toxicity, cell-based; conditions: at 16 µg/mL, read-out: Activity
Nakaseomyces glabratus = assay: Antifungal activity against Candida glabrata 537 assessed as growth inhibition measured after 48 hrs incubation by CLSI based micro-dilution broth method; format: functional
Candida albicans [9] = assay: Suppression of EFG1 gene expression in Candida albicans SC5314 assessed as fold increase at 8 microg/ml by real time RT-PCR analysis relative to control; format: functional; conditions: dose 8.0 µg/ml
Candida albicans [10] = assay: Antibiofilm activity against Candida albicans SC5314 assessed as biofilm disruption at 32 microg/ml incubated for 24 hrs by XTT/menadione reduction assay relative to control; format: functional; design: scale not given: the % may be the effect or the level left; conditions: dose 32 µg/ml
Candida albicans [11] = assay: Filamentation inhibitory effect in Candida albicans SC5314 assessed as inhibition of hyphal formation using hyphal-inducing RPMI 1640 medium at 2 to 8 microg/ml measured after 3 hrs by inverted imaging microscopy; format: functional, organism-based; conditions: dose 2-8 µg/ml
[12] = MRT (0 to t) in Sprague-Dawley rat at 2 mg/kg, iv measured upto 24 hrs by LC-MS/MS analysis; format: ADME, organism-based; conditions: in vivo
Candida albicans [13] = assay: Suppression of BCR1 gene expression in Candida albicans SC5314 assessed as fold increase at 8 microg/ml by real time RT-PCR analysis relative to control; format: functional; conditions: dose 8.0 µg/ml
Candida albicans [14] = assay: Effect on of UME6 gene expression in Candida albicans SC5314 at 4 to 8 microg/ml by real time RT-PCR analysis; format: functional; conditions: dose 4-8 µg/ml
Candida albicans [15] = assay: Antibiofilm activity against Candida albicans SC5314 assessed as inhibition of biofilm formation at 4 microg/ml incubated for 24 hrs by XTT/menadione reduction assay relative to control; format: functional; design: scale not given: the % may be the effect or the level left; conditions: dose 4 µg/ml
Candida albicans [16] = assay: Effect on of BRG1 gene expression in Candida albicans SC5314 at 4 to 8 microg/ml by real time RT-PCR analysis; format: functional; conditions: dose 4-8 µg/ml
[17] = Metabolic stability in mouse liver microsomes assessed as intrinsic clearance measured per mg of protein upto 60 mins by LC-MS/MS analysis; format: ADME, Microsome; conditions: read-out: CLH
Candida albicans [18] = assay: Antifungal activity against FCZ-resistant Candida albicans SC5314 assessed as reduction in CFU at 0.5 to 2 microg/ml measured at 24 hrs incubation by time kill assay (reference value: 5 log10 CFU/ml); format: functional; conditions: dose 0.5-2 µg/ml
Candida albicans [19] = assay: Effect on ECE1 gene expression in Candida albicans SC5314 at 4 to 8 microg/ml by real time RT-PCR analysis; format: functional; conditions: dose 4-8 µg/ml
Candida albicans [20] = assay: Upregulation of BCR1 gene expression in Candida albicans SC5314 assessed as fold increase at 4 microg/ml by real time RT-PCR analysis relative to control; format: functional; conditions: dose 4.0 µg/ml
Candida albicans [21] = assay: Antifungal activity against FCZ-resistant Candida albicans strain 904 assessed as growth inhibition in presence of fluconazole measured after 48 hrs incubation by CLSI based micro-dilution broth method; format: functional
[22] = Cytotoxicity against human HUVEC cells assessed as cell viability measured after 24 hrs by CCK-8 assay; format: toxicity, cell-based
Candida albicans [23] = assay: Upregulation of SAP6 gene expression in Candida albicans SC5314 assessed as fold increase at 4 microg/ml by real time RT-PCR analysis relative to control; format: functional; conditions: dose 4.0 µg/ml
Cryptococcus neoformans = assay: Antifungal activity against FCZ-resistant Cryptococcus neoformans 32609 assessed as growth inhibition at 0.5 to 4 microg/ml measured at 24 hrs incubation by time growth assay; format: functional, organism-based; conditions: dose 0.5-4 µg/ml
Candida albicans [24] = assay: Effect on HWP1 gene expression in Candida albicans SC5314 at 4 to 8 microg/ml by real time RT-PCR analysis; format: functional; conditions: dose 4-8 µg/ml
Candida albicans [25] = assay: Induction of cell wall component change in Candida albicans SC5314 assessed as swollen inner beta glucan layer at 4 microg/ml measured after 12 hrs by transmission electron microscopy; format: functional, organism-based; conditions: dose 4.0 µg/ml
Candida albicans [26] = assay: Effect on sterol biosynthesis in Candida albicans SC5314 assessed as sterol component and content at 4 microg/ml measured after 8 hrs by GC-MS analysis; format: functional, organism-based; conditions: dose 4.0 µg/ml
Candida albicans [27] = assay: In vivo antifungal activity against Candida albicans SC5314 infected in po dosed C57BL/6J mouse assessed as reduction in fungal burden in kidney treated once a day for 2 days; format: functional, organism-based; conditions: dose 5-10 mg/kg, time 2.0 day
Candida albicans [28] = assay: Suppression of ALS3 gene expression in Candida albicans SC5314 at 4 to 8 microg/ml by real time RT-PCR analysis; format: functional; conditions: dose 4-8 µg/ml
Candida albicans [29] = assay: Antibiofilm activity against Candida albicans SC5314 assessed as inhibition of biofilm formation at 32 microg/ml incubated for 24 hrs by XTT/menadione reduction assay relative to control; format: functional; design: scale not given: the % may be the effect or the level left; conditions: dose 32 µg/ml
Candida albicans [30] = assay: Suppression of SAP2 gene expression in Candida albicans SC5314 assessed as fold increase at 8 microg/ml by real time RT-PCR analysis relative to control; format: functional; conditions: dose 8.0 µg/ml
Candida albicans [31] = assay: Synergistic antifungal activity against FCZ-resistant Candida albicans strain 904 assessed as fractional inhibitory concentration index measured after 48 hrs in presence of FCZ by CLSI based micro-dilution broth method; format: functional
Candida tropicalis = assay: Antifungal activity against Candida tropicalis 8915 assessed as growth inhibition measured after 48 hrs incubation by CLSI based micro-dilution broth method; format: functional
Candida parapsilosis = assay: Antifungal activity against Candida parapsilosis 22019 assessed as growth inhibition measured after 48 hrs incubation by CLSI based micro-dilution broth method; format: functional; conditions: Lodderomyces parapsilosis
Candida albicans [32] = assay: Induction of cell wall component change in Candida albicans SC5314 assessed as decrease in mannan content by measuring ConA fluorescence intensity at 4 microg/ml measured after 12 hrs by confocal laser-scanning microscopy; format: functional, organism-based; conditions: dose 4.0 µg/ml

O=[N+]([O-])c1ccc(O)c(/C=N/Nc2nc(NCc3ccc(F)cc3)nc(NCc3ccc(F)cc3)n2)c1
Activity (Candida albicans [1]): Active
half-life [2]: 76.8 min
fractional inhibitory concentration index (FICI) (Candida albicans [3]): 0.25
MIC80 ([Candida] auris): 16 µg/mL (≈ 31.6 µM)
AUC(0-inf) [4]: 1470 ng·h/mL
fold change (FC) (Candida albicans [5]): 2.99
Activity (Candida albicans [6]): Active
half-life [7]: 55.8 min
Activity (Pichia kudriavzevii): Active
viability at 24 h, 16 microg/ml [8]: 75.5%
MIC80 (Nakaseomyces glabratus): 0.5 µg/mL (≈ 0.987 µM)
fold change (FC) (Candida albicans [9]): 1.52
Activity (Candida albicans [10]): <30%
Activity (Candida albicans [11]): Active
MRT last at 24 h [12]: 45 min
fold change (FC) (Candida albicans [13]): 1.58
Activity (Candida albicans [14]): inactive
Activity (Candida albicans [15]): 40%
Activity (Candida albicans [16]): inactive
microsomal CLint [17]: 24.9 µL/min/mg
Activity (Candida albicans [18]): 3.2 log10CFU/ml
Activity (Candida albicans [19]): inactive
fold change (FC) (Candida albicans [20]): 1.9
MIC80 (Candida albicans [21]): 0.25 µg/mL
IC50 at 24 h [22]: 41.4 µg/mL (≈ 81.7 µM)
fold change (FC) (Candida albicans [23]): 4.38
Activity (Cryptococcus neoformans): Active
Activity (Candida albicans [24]): inactive
Activity (Candida albicans [25]): Active
Activity (Candida albicans [26]): inactive
Activity (Candida albicans [27]): Dose-Dependent Effect
Activity (Candida albicans [28]): Active
Activity (Candida albicans [29]): 70%
fold change (FC) (Candida albicans [30]): 1.22
fractional inhibitory concentration index (FICI) (Candida albicans [31]): 0.38
MIC80 (Candida tropicalis): 2 µg/mL (≈ 3.95 µM)
MIC80 (Candida parapsilosis): 2 µg/mL (≈ 3.95 µM)
Activity (Candida albicans [32]): Active
